This note sets out measurements from PMC6324581 (Peptide science (Hoboken, N.J.), 2018).

One assay relates to E. coli D31. The assay is classed as cell-based. The settings on record: Mueller Hinton broth, ~10^5 CFU/mL, 18 hours at 37°C, OD600, lowest concentration with no visible growth, average of 3 independent samples.
For assay [1], the system named is K. pneumonia (ATCC: 700603). The format is cell-based, K. pneumoniae. The settings on record: 18 h.
Assay [2] has as its system P. aeruginosa (ATCC:10145). The assay is classed as cell-based. The settings on record: ATCC:10145, 18 h.
A further assay deals with S. aureus (ATCC: 27660). The format is cell-based. The settings on record: ATCC: 27660, 18 h.

Converted amounts (≈) assume the structure as drawn. Square brackets hold non-standard residues; d marks the D form. Ends that are not written are not given here. Peptide text beside a SMILES is read from it. Dap = NC[C@H](N)C(=O)O

Usually MIC stands for the least concentration at which growth counts as inhibited. A high value points to a need for much substance. Take KKAAKAWAKGAKKAKKLAKGAG [PBP-A]: the minimal inhibitory concentration (MIC) (against E. coli D31; in assay [1]; in assay [2]) was above 15 µM throughout.

For `CC[C@H](C)[C@H](NC(=O)CNC(=O)[C@H](CN)NC(=O)[C@H](Cc1ccccc1)NC(=O)[C@H](CC(C)C)NC(=O)[C@H](CN)NC(=O)[C@H](CN)NC(=O)[C@H](C)NC(=O)[C@H](CN)NC(=O)[C@H](CN)NC(=O)[C@H](Cc1ccccc1)NC(=O)CNC(=O)[C@H](CN)NC(=O)[C@H](C)NC(=O)[C@H](Cc1c[nH]c2ccccc12)NC(=O)[C@@H](NC(=O)[C@H](CN)NC(=O)[C@@H](NC(=O)[C@H](CC(C)C)NC(=O)[C@H](CN)NC(=O)[C@@H](N)CN)[C@@H](C)CC)C(C)C)C(=O)NCC(=O)O` [PBP-X] (H-[Dap][Dap]LI[Dap]VWA[Dap]GF[Dap][Dap]A[Dap][Dap]LF[Dap]GIG-OH), the MIC against E. coli D31 amounted to 1.88 µM (≈ 4.02 µg/mL); in assay [2], 3.75 µM (≈ 8.02 µg/mL).

As for KKLIKVFAKGFKKAKKLWKGIG [PBP-W18], the MIC amounted to 0.94 µM against S. aureus (ATCC: 27660), 1.88 µM in assay [1] and 1.88 µM in assay [2].

On to KKLIKVFAKGWKKAKKLFKGIG [PBP-W11], for which the MIC against S. aureus (ATCC: 27660) was 0.47 µM; in assay [1], 1.88 µM; in assay [2], 1.88 µM.

On to KKLIKVWAKGFKKAKKLFKGIG [PBP], for which the minimum inhibitory concentration (MIC) against S. aureus (ATCC: 27660) came out at 0.94 µM; against E. coli D31, 0.94 µM; in assay [1] it was 1.88 µM; in assay [2] it was 1.88 µM.
